pIC50: −log10 of the molar value.
Tests used:
Experiment in all cases: cells
Conditions in all cases: Homo sapiens
DMS-114 = format: functional, cell-based
OCI-AML2 = format: functional, cell-based;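 also: growth inhibition of OCI-AML2 cells, read out with a cell viability assay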
Description: SANGER: Inhibition of human OCI-AML2 cell growth in a cell viability assay.

NCI-H1395 = format: functional, cell-based;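 also: cell viability assay read-out quantifying reduced proliferation of human NCI-H1395 cells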
Description: SANGER: Inhibition of human NCI-H1395 cell growth in a cell viability assay.

NCI-H23 = format: functional, cell-based;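 also: cell viability assay measuring growth inhibition of NCI-H23 cells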
Description: SANGER: Inhibition of human NCI-H23 cell growth in a cell viability assay.

IST-SL1 = format: functional, cell-based;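 also: growth inhibition of human IST-SL1 cells, read out with a cell viability assay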
Description: SANGER: Inhibition of human IST-SL1 cell growth in a cell viability assay.

BB65-RCC = format: functional, cell-based;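 also: growth inhibition of the cell line, measured with a cell viability assay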
Description: SANGER: Inhibition of human BB65-RCC cell growth in a cell viability assay.

COLO-829 = format: functional, cell-based
Description: SANGER: Inhibition of human COLO-829 cell growth in a cell viability assay.

OS-RC-2 = format: functional, cell-based;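 also: growth inhibition of human OS-RC-2 cells, measured by a cell viability assay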
Description: SANGER: Inhibition of human OS-RC-2 cell growth in a cell viability assay.

ETK-1 = format: functional, cell-based;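 also: growth inhibition of human ETK-1 cells, read out with a cell viability assay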
Description: SANGER: Inhibition of human ETK-1 cell growth in a cell viability assay.

ATN-1 = format: functional, cell-based;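 also: growth inhibition of human ATN-1 cells, read out with a cell viability assay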
Description: SANGER: Inhibition of human ATN-1 cell growth in a cell viability assay.

NB13 = format: functional, cell-based;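 also: cell viability readout measuring growth inhibition of human NB13 cells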
Description: SANGER: Inhibition of human NB13 cell growth in a cell viability assay.

NCI-H510A = format: functional, cell-based;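 also: growth inhibition of NCI-H510A cells, read out with a cell viability assay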
Description: SANGER: Inhibition of human NCI-H510A cell growth in a cell viability assay.

DMS-79 = format: functional, cell-based;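 also: growth inhibition measured with a cell viability assay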
Description: SANGER: Inhibition of human DMS-79 cell growth in a cell viability assay.

NCI-H2126 = format: functional, cell-based;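 also: growth inhibition of the cancer cell line, determined with a cell viability readout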
Description: SANGER: Inhibition of human NCI-H2126 cell growth in a cell viability assay.

EOL1 = format: functional, cell-based;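 also: growth inhibition of EoL-1 cells, read out by a cell viability assay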
Description: SANGER: Inhibition of human EoL-1-cell cell growth in a cell viability assay.

NCI-H1770 = format: functional, cell-based;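 also: growth inhibition of NCI-H1770 cells determined with a viability readout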
Description: SANGER: Inhibition of human NCI-H1770 cell growth in a cell viability assay.

LU-139 = format: functional, cell-based
Description: SANGER: Inhibition of human LU-139 cell growth in a cell viability assay.

EC-GI-10 = format: functional, cell-based
Description: SANGER: Inhibition of human EC-GI-10 cell growth in a cell viability assay.

Calu-6 = format: functional, cell-based;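 also: growth of human Calu-6 cells, read out by a cell viability assay, IC50 marking inhibition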
Description: SANGER: Inhibition of human Calu-6 cell growth in a cell viability assay.

HCC1187 = format: functional, cell-based;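 also: growth inhibition of HCC1187 cells, read out with a cell viability assay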
Description: SANGER: Inhibition of human HCC1187 cell growth in a cell viability assay.

COLO-824 = format: functional, cell-based
Description: SANGER: Inhibition of human COLO-824 cell growth in a cell viability assay.

HD-MY-Z = format: functional, cell-based;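 also: growth inhibition of HD-MY-Z cells, read out with a cell viability assay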
Description: SANGER: Inhibition of human HD-MY-Z cell growth in a cell viability assay.

CAS-1 = format: functional, cell-based;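 also: growth inhibition of CAS-1 cells, measured with a cell viability assay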
Description: SANGER: Inhibition of human CAS-1 cell growth in a cell viability assay.

SNB-75 = format: functional, cell-based;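 also: cell viability assay measuring growth inhibition of human SNB-75 cells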
Description: SANGER: Inhibition of human SNB75 cell growth in a cell viability assay.

SW872 = format: functional, cell-based;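 also: growth inhibition of SW872 cells, read out by a viability assay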
Description: SANGER: Inhibition of human SW872 cell growth in a cell viability assay.

TGBC1TKB = format: functional, cell-based;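 also: growth inhibition of TGBC1TKB cells, read out by a cell viability assay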
Description: SANGER: Inhibition of human TGBC1TKB cell growth in a cell viability assay.

SK-UT-1 = format: functional, cell-based;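 also: growth inhibition of SK-UT-1 cells, measured by a cell viability assay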
Description: SANGER: Inhibition of human SK-UT-1 cell growth in a cell viability assay.

DEL = format: functional, cell-based;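 also: growth inhibition of the human DEL cell line, read out with a cell viability assay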
Description: SANGER: Inhibition of human DEL cell growth in a cell viability assay.

RH-1 = format: functional, cell-based;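 also: growth inhibition of human RH-1 cells, read out with a cell viability assay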
Description: SANGER: Inhibition of human RH-1 cell growth in a cell viability assay.

NH-12 = format: functional, cell-based;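 also: growth inhibition of NH-12 cells, read out with a cell viability assay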
Description: SANGER: Inhibition of human NH-12 cell growth in a cell viability assay.

KALS-1 = format: functional, cell-based;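 also: growth inhibition of KALS-1 cells, determined with a cell viability assay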
Description: SANGER: Inhibition of human KALS-1 cell growth in a cell viability assay.

HAL-01 = format: functional, cell-based;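 also: growth inhibition of human HAL-01 cells, read out with a cell viability assay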
Description: SANGER: Inhibition of human HAL-01 cell growth in a cell viability assay.

L-428 = format: functional, cell-based
Description: SANGER: Inhibition of human L-428 cell growth in a cell viability assay.

A3-KAW = format: functional, cell-based;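 also: growth inhibition of human A3-KAW cells, read out with a cell viability assay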
Description: SANGER: Inhibition of human A3-KAW cell growth in a cell viability assay.

CTV-1 = format: functional, cell-based;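 also: growth inhibition of the cell line, read out with a cell viability assay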
Description: SANGER: Inhibition of human CTV-1 cell growth in a cell viability assay.

MFM-223 = format: functional, cell-based
Description: SANGER: Inhibition of human MFM-223 cell growth in a cell viability assay.

SW684 = format: functional, cell-based;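 also: growth inhibition of human SW684 cells, measured by a cell viability assay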
Description: SANGER: Inhibition of human SW684 cell growth in a cell viability assay.

A498 = format: functional, cell-based;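 also: growth inhibition of human A498 cells, read out with a cell viability assay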
Description: SANGER: Inhibition of human A498 cell growth in a cell viability assay.

KU812 cell line = format: functional, cell-based;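 also: growth inhibition of KU812 cells, read out with a cell viability assay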
Description: SANGER: Inhibition of human KU812 cell growth in a cell viability assay.

DSH1 = format: functional, cell-based;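 also: growth inhibition of human DSH1 cells, measured with a cell viability readout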
Description: SANGER: Inhibition of human DSH1 cell growth in a cell viability assay.

OCUB-M = format: functional, cell-based;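 also: growth inhibition of the cancer cell line, read out through a cell viability assay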
Description: SANGER: Inhibition of human OCUB-M cell growth in a cell viability assay.

LAMA-84 = format: functional, cell-based;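 also: growth inhibition of LAMA-84 cells, read out with a cell viability assay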
Description: SANGER: Inhibition of human LAMA-84 cell growth in a cell viability assay.

NCI-H1092 = format: functional, cell-based;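 also: cell growth inhibition measured with a cell viability assay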
Description: SANGER: Inhibition of human NCI-H1092 cell growth in a cell viability assay.

SHP77 = format: functional, cell-based, SHP-77;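 also: growth inhibition of human SHP-77 cells measured by a cell viability assay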
Description: SANGER: Inhibition of human SHP-77 cell growth in a cell viability assay.

HT-144 = format: functional, cell-based
Description: SANGER: Inhibition of human HT-144 cell growth in a cell viability assay.

NCI-H1304 = format: functional, cell-based;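 also: growth inhibition of the cancer cell line, measured in a cell viability assay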
Description: SANGER: Inhibition of human NCI-H1304 cell growth in a cell viability assay.

NCI-H226 = format: functional, cell-based;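 also: cell viability read-out used to gauge growth inhibition of the cells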
Description: SANGER: Inhibition of human NCI-H226 cell growth in a cell viability assay.

NCI-H720 = format: functional, cell-based;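 also: growth inhibition of human NCI-H720 cells determined by a cell viability assay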
Description: SANGER: Inhibition of human NCI-H720 cell growth in a cell viability assay.

BV-173 = format: functional, cell-based
Description: SANGER: Inhibition of human BV-173 cell growth in a cell viability assay.

SK-N-DZ = format: functional, cell-based;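 also: growth inhibition of the cancer cell line, read out through a viability assay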
Description: SANGER: Inhibition of human SK-N-DZ cell growth in a cell viability assay.

SK-N-FI = format: functional, cell-based;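 also: cell viability assay measuring growth inhibition of human SK-N-FI cells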
Description: SANGER: Inhibition of human SK-N-FI cell growth in a cell viability assay.

LB2518-MEL = format: functional, cell-based;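 also: growth inhibition of human LB2518-MEL cells, measured with a cell viability assay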
Description: SANGER: Inhibition of human LB2518-MEL cell growth in a cell viability assay.

MZ2-MEL = format: functional, cell-based;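 also: growth inhibition of MZ2-MEL cells read out with a cell viability assay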
Description: SANGER: Inhibition of human MZ2-MEL cell growth in a cell viability assay.

JVM-2 = format: functional, cell-based;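 also: growth inhibition of JVM-2 cells determined by a cell viability assay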
Description: SANGER: Inhibition of human JVM-2 cell growth in a cell viability assay.

OVCAR-4 = format: functional, cell-based;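 also: growth inhibition of human OVCAR-4 cells, measured with a cell viability assay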
Description: SANGER: Inhibition of human OVCAR-4 cell growth in a cell viability assay.

RCC10RGB = format: functional, cell-based;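 also: growth inhibition of human RCC10RGB cells, read out by a cell viability assay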
Description: SANGER: Inhibition of human RCC10RGB cell growth in a cell viability assay.

no-10 = format: functional, cell-based;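 also: growth inhibition of no-10 cells, read out with a cell viability assay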
Description: SANGER: Inhibition of human no-10 cell growth in a cell viability assay.

LC-2-ad = format: functional, cell-based;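 also: growth inhibition of human LC-2-ad cells, read out with a cell viability assay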
Description: SANGER: Inhibition of human LC-2-ad cell growth in a cell viability assay.

SCH = format: functional, cell-based;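 also: growth inhibition of human SCH cells, read out in a cell viability assay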
Description: SANGER: Inhibition of human SCH cell growth in a cell viability assay.

MC116 = format: functional, cell-based
Description: SANGER: Inhibition of human MC116 cell growth in a cell viability assay.

TE-12 = format: functional, cell-based
Description: SANGER: Inhibition of human TE-12 cell growth in a cell viability assay.

RS4-11 = format: functional, cell-based
Description: SANGER: Inhibition of human RS4-11 cell growth in a cell viability assay.

NCI-H82 = format: functional, cell-based
Description: SANGER: Inhibition of human NCI-H82 cell growth in a cell viability assay.

GAK = format: functional, cell-based
Description: SANGER: Inhibition of human GAK cell growth in a cell viability assay.

EW-24 = format: functional, cell-based
Description: SANGER: Inhibition of human EW-24 cell growth in a cell viability assay.

MPP-89 = format: functional, cell-based
Description: SANGER: Inhibition of human MPP-89 cell growth in a cell viability assay.

C/C(O)=C(\C#N)C(=O)Nc1cc(Br)ccc1Br
pIC50 (DMS-114): < 4.80
pIC50 (OCI-AML2): < 4.80
pIC50 (NCI-H1395): < 4.80
pIC50 (NCI-H23): < 4.80
pIC50 (IST-SL1): < 4.80
pIC50 (BB65-RCC): < 4.80
pIC50 (COLO-829): < 4.80
pIC50 (OS-RC-2): < 4.80
pIC50 (ETK-1): < 4.80
pIC50 (ATN-1): < 4.80
pIC50 (NB13): < 4.80
pIC50 (NCI-H510A): < 4.80
pIC50 (DMS-79): < 4.80
pIC50 (NCI-H2126): < 4.80
pIC50 (EOL1): < 4.80
pIC50 (NCI-H1770): < 4.80
pIC50 (LU-139): < 4.80
pIC50 (EC-GI-10): < 4.80
pIC50 (Calu-6): < 4.80
pIC50 (HCC1187): < 4.80
pIC50 (COLO-824): < 4.80
pIC50 (HD-MY-Z): < 4.80
pIC50 (CAS-1): < 4.80
pIC50 (SNB-75): < 4.80
pIC50 (SW872): < 4.80
pIC50 (TGBC1TKB): < 4.80
pIC50 (SK-UT-1): < 4.80
pIC50 (DEL): < 4.80
pIC50 (RH-1): < 4.80
pIC50 (NH-12): < 4.80
pIC50 (KALS-1): < 4.80
pIC50 (HAL-01): < 4.80
pIC50 (L-428): < 4.80
pIC50 (A3-KAW): < 4.80
pIC50 (CTV-1): < 4.80
pIC50 (MFM-223): < 4.80
pIC50 (SW684): < 4.80
pIC50 (A498): < 4.80
pIC50 (KU812 cell line): < 4.80
pIC50 (DSH1): < 4.80
pIC50 (OCUB-M): < 4.80
pIC50 (LAMA-84): < 4.80
pIC50 (NCI-H1092): < 4.80
pIC50 (SHP77): < 4.80
pIC50 (HT-144): < 4.80
pIC50 (NCI-H1304): < 4.80
pIC50 (NCI-H226): < 4.80
pIC50 (NCI-H720): < 4.80
pIC50 (BV-173): < 4.80
pIC50 (SK-N-DZ): < 4.80
pIC50 (SK-N-FI): < 4.80
pIC50 (LB2518-MEL): < 4.80
pIC50 (MZ2-MEL): < 4.80
pIC50 (JVM-2): < 4.80
pIC50 (OVCAR-4): < 4.80
pIC50 (RCC10RGB): < 4.80
pIC50 (no-10): < 4.80
pIC50 (LC-2-ad): < 4.80
pIC50 (SCH): < 4.80
pIC50 (MC116): < 4.80
pIC50 (TE-12): < 4.80
pIC50 (RS4-11): < 4.80
pIC50 (NCI-H82): < 4.80
pIC50 (GAK): < 4.80
pIC50 (EW-24): < 4.80
pIC50 (MPP-89): < 4.80

C/C=C(/C)C(=O)O[C@H]1C(C)=C2[C@H]([C@@H]1OC(=O)CCCCCCC)[C@@](C)(OC(C)=O)C[C@H](OC(=O)CCC)[C@@]1(O)[C@H]2OC(=O)[C@@]1(C)O [THAPSIGARGIN]
pIC50 (DMS-114): < 6.29
pIC50 (OCI-AML2): 8.09
pIC50 (NCI-H1395): 6.75
pIC50 (NCI-H23): < 6.29
pIC50 (IST-SL1): 7.62
pIC50 (BB65-RCC): 8.29
pIC50 (COLO-829): 7.53
pIC50 (OS-RC-2): 7.61
pIC50 (ETK-1): > 8.70
pIC50 (ATN-1): 7.49
pIC50 (NB13): 8.02
pIC50 (NCI-H510A): 7.44
pIC50 (DMS-79): < 6.29
pIC50 (NCI-H2126): 7.10
pIC50 (EOL1): 7.62
pIC50 (NCI-H1770): 7.59
pIC50 (LU-139): 7.47
pIC50 (EC-GI-10): 6.45
pIC50 (Calu-6): 8.32
pIC50 (HCC1187): 6.30
pIC50 (COLO-824): 7.19
pIC50 (HD-MY-Z): 7.76
pIC50 (CAS-1): 6.93
pIC50 (SNB-75): 7.49
pIC50 (SW872): 8.24
pIC50 (TGBC1TKB): 9.29
pIC50 (SK-UT-1): 7.63
pIC50 (DEL): 7.99
pIC50 (RH-1): 7.36
pIC50 (NH-12): 7.62
pIC50 (KALS-1): 9.29
pIC50 (HAL-01): 6.52
pIC50 (L-428): < 6.29
pIC50 (A3-KAW): 8.70
pIC50 (CTV-1): 8.28
pIC50 (MFM-223): < 6.29
pIC50 (SW684): < 6.29
pIC50 (A498): < 6.29
pIC50 (KU812 cell line): 8.67
pIC50 (DSH1): 7.86
pIC50 (OCUB-M): 9.22
pIC50 (LAMA-84): 7.71
pIC50 (NCI-H1092): < 6.29
pIC50 (SHP77): 7.23
pIC50 (HT-144): 9.29
pIC50 (NCI-H1304): 7.23
pIC50 (NCI-H226): 8.62
pIC50 (NCI-H720): < 6.29
pIC50 (BV-173): 8.55
pIC50 (SK-N-DZ): 7.36
pIC50 (SK-N-FI): 7.05
pIC50 (LB2518-MEL): 7.76
pIC50 (MZ2-MEL): 8.75
pIC50 (JVM-2): < 6.29
pIC50 (OVCAR-4): 8.53
pIC50 (RCC10RGB): < 6.29
pIC50 (no-10): < 6.29
pIC50 (LC-2-ad): 8.33
pIC50 (SCH): < 6.29
pIC50 (MC116): > 8.70
pIC50 (TE-12): 7.98
pIC50 (RS4-11): 8.89
pIC50 (NCI-H82): 7.51
pIC50 (GAK): 6.70
pIC50 (EW-24): 6.83
pIC50 (MPP-89): 7.70

From ChEMBL document CHEMBL1201861, “Genomics of Drug Sensitity in Cancer screening data, Wellcome Trust Sanger Institute”
